Patent US12599141B2, “Rod-shaped plant viral nanoparticles or virus-like particles for agricultural applications” (priority 2016, dated 2026)

Columns and labels:
[1] = Soil mobility (leaching through 4 cm top soil column); assay type: physicochemical
Procedure: The following soil mobility test was designed to establish the leaching of CVTMGMV and free CV in a soil column. […] One mL aliquots of CVTMGMV or free CV (the concentration was 100 mM normalized to the drug concentration) were applied atop of the soil columns, followed by 50 elution fractions of 300 μL DI water. Each collected elution fraction was centrifuged for 10 min at 12,000 rpm to precipitate remaining soil particles. The supernatant was subsequently analyzed by UV-vis spectroscopy (see above).
A soil mobility test was designed to establish the leaching of CVTMGMV and free CV in soil. Briefly, top soil was packed in a plastic column up to a height of 4 cm and saturated with deionized (DI) water. CVTMGMV or free CV was applied atop the soil columns, followed by DI water. Fractions were collected from the soil column, purified, and analyzed by UV-vis spectroscopy for the presence of TMGMV and CV. The λ260 (RNA) and λ280 (CP) wavelengths were monitored to quantify the amount of TMGMV that leached through the soil.

[2] = CV release profile from CVTMGMV, dialysis-based assay; assay type: physicochemical; conditions: 10 mM KP buffer
Procedure: The release of CV from TMGMV was evaluated using a dialysis-based assay.
Next, we evaluated the release profile of CV from the TMGMV nanocarrier. […] We tested the release profile at room temperature and 4° C. to evaluate two extreme upper soil thermal conditions. Sodium acetate (pH 5.2) and PBS (pH 7.4) buffer solutions were chosen to mimic the acidic and neutral soil environments, respectively. Diffusion of CV from CVTMGMV was also evaluated in KP (pH 7.8) buffer, which was used during loading and storing conditions of the sample. Free CV, in a concentration matched to the concentration and number loaded into TMGMV, was also dialyzed in KP buffer (pH 7.8) at 4° C. as a positive control.

C. elegans = C. elegans motility assay in liquid culture; assay type: in vivo, Caenorhabditis elegans
Procedure: OP50-1 E. coli and C. elegans strain N2 were provided by the Caenorhabditis Genetics Center (CGC) from the University of Minnesota, which is funded by NIH office of Research Infrastructure Programs P40 OD010440. Nematodes were cultured using 100 mm×15 mm sterile polystyrene Petri dishes (FB0875712, Fisher). […] Nematodes were then cultured on the OP50-1 E. coli plates at 22° C. […] OP50-1 E. coli pellet stocks were resuspended in S basal and added to the liquid culture to provide a food source to the nematodes.
Bioavailability of CVTMGMV and free CV to C. elegans was investigated in liquid culture (see above). 50 Nematodes were added to each well of a 24-well culture plate to a final volume of 1 mL. […] The percent of affected nematodes (sum of the nematodes on scale (2) and (3)) as a function of time and the effective concentration (EC50) were determined comparing free CV, TMGMV, and CVTMGMV.
Bioavailability of CVTMGMV and free CV in Caenorhabditis elegans (C. elegans) was investigated in liquid culture. C. elegans nematode motility was classified as either (1) totally immobilized, (2) impaired motility, or (3) […] nematodes. To illustrate the data that were collected, a series of snap shots of C. elegans incubated with no treatment, 10 μM of CV, and 10 μM of CVTMGMV were taken every second for 60 s. […] Five nematodes were selected in each treatment regime and pseudocolored to illustrate their motility.
At specific time points, nematodes were observed under a white light microscope, and the percent of affected nematodes (sum of the nematodes on scale (2) and (3)) was quantified as a function of time. The effective concentration (EC50), defined as the concentration of CV at which half of the maximum immobilization of C. elegans was reached, was determined for free CV and CVTMGMV (FIGS. 5D-G).

[3] = ref: PubChem CID 11057; cited from earlier work

**Q.** For CN(C)c1ccc(C(=C2C=CC(=[N+](C)C)C=C2)c2ccc(N(C)C)cc2)cc1 [CV, hexamethyl parparosaniline chloride], which “eluted concentration of CV, times lower than CVTMGMV” value [1] is on record?
**A.** The value was 3.6 times.

**Q.** And the “time to 50% of CV released/dialyzed” value ([2]; pH 7.8, 4° C. (storing conditions))?
**A.** Its value is at most 1.6 h.

**Q.** What about the “time to complete release of CV” value ([2]; pH 7.8, 4° C., dialysis over 72 h) of the same compound?
**A.** The value was under 18 h.

**Q.** What about the “incubation time to maximum efficacy” value (C. elegans; 1 μM) of the same compound?
**A.** Its value is 6 h.

**Q.** And the nematodes paralyzed/dead (C. elegans; 1 μM, within the first hour)?
**A.** The nematodes paralyzed/dead was “about 15%”.

**Q.** And the “incubation time to maximum efficacy” value (C. elegans; 10 μM)?
**A.** The value was 6 h.

**Q.** And the “motility by time lapse imaging” value (C. elegans; 10 μM, after 3 h of incubation)?
**A.** Its value is “severe motility impairment”.

**Q.** And the nematodes paralyzed/dead (C. elegans; 10 μM, within the first hour)?
**A.** Its nematodes paralyzed/dead is “about 30%”.

**Q.** What about the nematodes paralyzed/dead (C. elegans; 100 μM, within 1 h, 22° C.) of the same compound?
**A.** Its nematodes paralyzed/dead is “Sixty”.

**Q.** And the Emax at 1 µM (C. elegans; Caenorhabditis elegans, 6 h, read-out: maximum efficacy (nematodes affected))?
**A.** The Emax at 1 µM was about 25%.

**Q.** What about the EC50 (C. elegans; Caenorhabditis elegans, 24 h, read-out: EC50 (concentration of CV at half of maximum immobilization of C. elegans)) of the same compound?
**A.** Its EC50 is 3.7 µM.

**Q.** And the Emax at 10 µM (C. elegans; Caenorhabditis elegans, read-out: maximum efficacy (nematodes affected))?
**A.** Its Emax at 10 µM is about 50%.

**Q.** And the “effect on nematode motility vs untreated population” value (C. elegans; doses lower than 1 μM)?
**A.** The value was “no significant effect on nematode motility”.

**Q.** And the Koc [3]?
**A.** Its Koc is 6.1×10^5.
